Patent publication US20190374647A1, “STABLE LIPOSOMES FOR DRUG DELIVERY” (YISSUM RESEARCH DEVELOPMENT COMPANY OF THE HEBREW …, priority 2012, published 2019)
Structures can show the parent of a compound that is named as a salt. Marks after values point to notes of the source that are not given here.

What was measured:
[1] = OVCAR-3 xenograft study, tolerability (body weight, clinical signs); assay type: in vivo
Experimental: (§1) G1 animals served as vehicle control and received 5 ml/kg saline. 2, G5 and G6 animals were treated with 8 mg/kg doxorubicin HCl, LC3-PLDMS-2 (PLMDS-2 are liposomes containing 250 mM ammonium methanesulfonate (MS) and remote loaded with doxorubicin (group 5 in the experiment), LC4_PLDMS-5 are liposomes containing 500 mM ammonium methanesulfonate (MS) and remote loaded with doxorubicin (group 6 in the experiment) (respectively, given intravenously (5 mL/kg dose volume) once weekly for 2 consecutive weeks. Body weight, general clinical observations and tumor size were monitored throughout the experimental period. Experimental groups were terminated when median tumor volume reached 2500 mm^3. Endpoint parameters such as body weight change, % ILS, Median tumor volume, TGI, % T/C, RTV, LCK, Tumor growth delay, TVDT and TVDTD were calculated. Tumor volumes were measured twice weekly using a digital vernier caliper recording length (L=longest axis) and width (W=shortest axis), and volume was calculated in mm^3 as L×W^2/2. Groups reaching a median tumor volume of 2500 mm^3 were terminated and the date of termination was used as the date of death for the purpose of survival calculations. The following parameters were calculated: median survival time (MST), percentage increased life span (% ILS) and median tumor volume (TV). Other measured, including median TV change; median tumor growth inhibition (TGI); % T/C; relative tumor volume (RTV); log cell kill (LCK); tumor growth delay; tumor volume doubling time (TVDT); and tumor volume doubling time delay (TVDTC), were derived from the median tumor volume measurements. Tumor growth regression was also plotted.
(§2) Mice bearing growing tumor were selected and randomized into 4 groups containing 8 animals in each based on a mean tumor size of ˜100 mm3. G1 animals served as vehicle control and received 5 ml/kg saline whereas G2, G5 and G6 animals received Doxorubicin HCl, LC3-PLDMS-2 or LC4-PLDMS-5, respectively, at a dose of 8 mg/kg. All the animals were dosed intravenously at the dose volume of 5 ml/kg weekly once for two weeks. Body weight, general clinical observations and tumor volume parameters were recorded during the experimental period. Groups reaching median tumor volume of 2500 mm^3 were terminated.
The body weight of each mouse was recorded at the time of randomization, on alternate days during dosing period and post-dosing period until the end of the study.

[2] = tested on: human OVCAR-3 ovarian adenocarcinoma cells; assay: OVCAR-3 ovarian adenocarcinoma xenograft, anti-tumor efficacy; assay type: in vivo, athymic nude mice
Experimental: Female athymic nude mice were inoculated subcutaneously in the left flank with a suspension of 5×10^6 human OVCAR-3 ovarian adenocarcinoma cells (200 µL injection volume) and monitored for tumor growth. Animals were selected, randomized into four treatment groups (n=8 per group) with a balanced tumor size of ˜100 mm^3 according to the study design (Table 9) below.
as §1, §2
For preparation and administration of reference and test item, all the test items are ready to use formulations. The strength of test formulation is 2 mg/ml of doxorubicin HCl in sterile 5 ml vial. 2 ml of reference or test item formulation (i.e. Doxorubicin HCl, LC3-PLDMS-2 and LC4-PLDMS-5) was diluted to 0.5 ml normal saline to achieve 1.6 mg/ml. 100 μL of final test formulation was injected intravenously to 20 g of mouse to achieve the 8 mg/kg dose. Group G1 animals received normal saline at the dose volume of 5 ml/kg.

[3] = Doxorubicin solubility in ammonium salt solutions; assay type: physicochemical
[4] = Blood levels of doxorubicin in mice after single I.V. dose; assay type: in vivo, Balb/c mice; conditions: after 48 hours, FIG. 3
Experimental: At defined time-points (see Table 8 below, for composition of each formulation see Tables 5 and 6), mice of each group were euthanized with CO2 and terminal blood was withdrawn from the retro-orbital sinus and collected in labeled K3EDTA tubes. The blood samples were then immediately subjected to plasma separation procedure (4000 rpm for 10 minutes at 4° C.). The plasma, red blood cells fraction and whole blood of each mouse has been collected in labeled CryoTubes and stored at −80° C. pending analysis. Doxorubicin was extracted from the samples as follows. […] From the upper phase, 100 μl of the plasma diluted in A-IPA were diluted in 900 μl mobile phase for analysis and the contents of extracted doxorubicin was determined using fluorescence HPLC (as described in Gabizon et al. (1993) Pharm. Research 10(5):703-708).

[5] = 8 mg/kg i.v. once weekly for 2 weeks

COc1cccc2c1C(=O)c1c(O)c3c(c(O)c1C2=O)C[C@@](O)(C(=O)CO)C[C@@H]3O[C@H]1C[C@H](N)[C@H](O)[C@H](C)O1 [Doxorubicin HCl]
Mean Body Weight ([1]; Day 22): 22.4 g | Mean Percentage Change in Body Weight ([1]; Day 22): 0.0% | Mean Body Weight ([1]; Day 24): 22.1 g | Mean Percentage Change in Body Weight ([1]; Day 24): −1.6% | Mean Body Weight ([1]; Day 26): 21.6 g | Mean Percentage Change in Body Weight ([1]; Day 26): −3.7% | Mean Body Weight ([1]; Day 28): 21.8 g | Mean Percentage Change in Body Weight ([1]; Day 28): −2.9% | Mean Body Weight ([1]; Day 30): 21.5 g | Mean Percentage Change in Body Weight ([1]; Day 30): −4.1% | Mean Body Weight ([1]; Day 32): 21.4 g | Mean Percentage Change in Body Weight ([1]; Day 32): −4.7% | Mean Body Weight ([1]; Day 34): 21.1 g | Mean Percentage Change in Body Weight ([1]; Day 34): −6.1% | Mean Body Weight ([1]; Day 36): 20.9 g | Mean Percentage Change in Body Weight ([1]; Day 36): −6.6% | Mean Body Weight ([1]; Day 38): 20.8 g | Mean Percentage Change in Body Weight ([1]; Day 38): −7.4% | Mean Body Weight ([1]; Day 40): 20.6 g | Mean Percentage Change in Body Weight ([1]; Day 40): −8.0% | Mean Body Weight ([1]; Day 42): 20.6 g | Mean Percentage Change in Body Weight ([1]; Day 42): −8.1% | Mean Body Weight ([1]; Day 44): 20.5 g | Mean Percentage Change in Body Weight ([1]; Day 44): −8.5% | Mean Body Weight ([1]; Day 46): 20.5* g | Mean Percentage Change in Body Weight ([1]; Day 46): −8.6% | Mean Body Weight ([1]; Day 48): 20.8* g | Mean Percentage Change in Body Weight ([1]; Day 48): −7.3% | Mean Body Weight ([1]; Day 50): 20.9* g | Mean Percentage Change in Body Weight ([1]; Day 50): −6.9% | Mean Body Weight ([1]; Day 52): 21.1* g | Mean Percentage Change in Body Weight ([1]; Day 52): −6.0% | Mean Body Weight ([1]; Day 56): 21.4 g | Mean Percentage Change in Body Weight ([1]; Day 56): −4.7% | Mean Body Weight ([1]; Day 59): 21.8 g | Mean Percentage Change in Body Weight ([1]; Day 59): −2.9% | Mean Body Weight ([1]; Day 63): 22.1 g | Mean Percentage Change in Body Weight ([1]; Day 63): −1.3% | maximum body weight loss ([1]; G2 on day 46, other groups on day 32 / 34 as printed): −8.6% | body weight gain by the end of experiment ([1]; mouse, in vivo): no body weight gain was observed | % Increased Life Span (% ILS) [2, 5]: 21.2% | Mean TVDT [2, 5]: 7 days | Median Survival Time (MST) [2, 5]: 63 | median life span [2, 5]: 63 days | Log Cell Kill Value ([2]; 8 mg/kg i.v. once weekly for 2 weeks, derived from median tumor volume): 0.40 | Median Tumor Volume ([2]; Day 22): 110.9 mm^3 | Median Tumor Volume ([2]; Day 24): 128.6 mm^3 | Median Tumor Volume ([2]; Day 26): 145.8 mm^3 | Median Tumor Volume ([2]; Day 28): 173.8 mm^3 | Median Tumor Volume ([2]; Day 30): 194.7 mm^3 | Median Tumor Volume ([2]; Day 32): 215.5 mm^3 | Median Tumor Volume ([2]; Day 34): 252.9 mm^3 | Median Tumor Volume ([2]; Day 36): 311.1 mm^3 | Median Tumor Volume ([2]; Day 38): 379.4 mm^3 | Median Tumor Volume ([2]; Day 40): 453.8 mm^3 | Median Tumor Volume ([2]; Day 42): 550.9 mm^3 | Median Tumor Volume ([2]; Day 44): 673.4 mm^3 | Median Tumor Volume ([2]; Day 46): 802.4 mm^3 | Median Tumor Volume ([2]; Day 48): 1006.1 mm^3 | Median Tumor Volume ([2]; Day 50): 1218.8 mm^3 | Median Tumor Volume ([2]; Day 52): 1430.3 mm^3 | Median Tumor Volume ([2]; Day 56): 1799.5 mm^3 | Median Tumor Volume ([2]; Day 59): 2192.6 mm^3 | Median Tumor Volume ([2]; Day 63): 2699.3 mm^3 | higher solubility of the methanesulfonate form versus ammonium sulfate [3]: at least 35 fold | solubility of doxorubicin in 250 mM ammonium alkyl or aryl sulfonate relative to 250 mM ammonium sulfate [3]: approximately 30 fold | precipitation in the presence of alkyl or aryl sulfonate ions ([3]; 70 mM): did not precipitate | concentration at which doxorubicin precipitates ([3]; in the presence of sulfate ions (ammonium sulfate)): less than 2 mM | drug levels in blood in comparison to Doxil® [4]: below limit of detection
